Laboratory results reported in PubChem BioAssay (NCI).
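These data come from cells grown in 96-well plates and exposed to compound for 48 hours at five concentrations. Here, GI50 denotes the concentration required for 50% inhibition of growth. TGI marks complete inhibition of growth.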

Legend:
Assay in all cases: NCI-60 cell line screen, 48 h
DMS 273 small cell lung = tested on: DMS 273 small cell lung
SK-MEL-2 melanoma = tested on: SK-MEL-2 melanoma
SK-OV-3 ovarian = tested on: SK-OV-3 ovarian
DLD-1 colon = tested on: DLD-1 colon
LXFL 529 NSCLC = tested on: LXFL 529 NSCLC
SR leukemia = tested on: SR leukemia
SN12C renal = tested on: SN12C renal
OVCAR-8 ovarian = tested on: OVCAR-8 ovarian
SNB-78 CNS = tested on: SNB-78 CNS
DU-145 prostate = tested on: DU-145 prostate
PC-3 prostate = tested on: PC-3 prostate
MDA-MB-435 = tested on: MDA-MB-435

Compound: O=C(NC12CC3CCC1CC(C3)C2)[C@@H]1CCCN1C(=O)OCc1ccccc1 (stereo not given in full)
- TGI (DMS 273 small cell lung): > 100 µM
- TGI (SK-MEL-2 melanoma): > 100 µM
- TGI (SK-OV-3 ovarian): > 100 µM
- TGI (DLD-1 colon): > 100 µM
- TGI (LXFL 529 NSCLC): > 100 µM
- TGI (SR leukemia): > 100 µM
- TGI (SN12C renal): > 100 µM
- TGI (OVCAR-8 ovarian): > 100 µM
- TGI (SNB-78 CNS): > 100 µM

Compound: COc1cc2c(N3CCN(C(=O)Nc4ccc(OC(C)C)cc4)CC3)ncnc2cc1OCCCN1CCCCC1
- GI50 (DU-145 prostate): 22 µM
- TGI (DU-145 prostate): > 85.3 µM
- GI50 (SK-MEL-2 melanoma): 15.6 µM
- TGI (SK-MEL-2 melanoma): 32.3 µM
- GI50 (SK-OV-3 ovarian): 18.4 µM
- TGI (SK-OV-3 ovarian): 39.9 µM
- GI50 (SR leukemia): 9.55 µM
- TGI (SR leukemia): 46.2 µM
- GI50 (SN12C renal): 14.9 µM
- TGI (SN12C renal): 88 µM
- GI50 (OVCAR-8 ovarian): 20.9 µM
- TGI (OVCAR-8 ovarian): 99.2 µM
- GI50 (PC-3 prostate): 18.8 µM
- TGI (PC-3 prostate): > 100 µM
- GI50 (MDA-MB-435): 13.8 µM
- TGI (MDA-MB-435): 29.9 µM

Compound: COc1nc2c(c(O)c(C)c(=O)n2OC2OCC(OC(C)=O)C(OC(C)=O)C2OC(C)=O)c(=O)n1C (stereo not given)
- TGI (DMS 273 small cell lung): > 100 µM
- TGI (SK-MEL-2 melanoma): > 100 µM
- TGI (DLD-1 colon): > 100 µM
- TGI (LXFL 529 NSCLC): > 100 µM
- TGI (SR leukemia): > 100 µM
- TGI (SN12C renal): > 100 µM
- TGI (OVCAR-8 ovarian): > 100 µM
- TGI (SNB-78 CNS): > 100 µM

Compound: COc1cc2c(cc1Nc1nc(N3CCc4ccccc43)c3cc[nH]c3n1)N(C(=O)CN(C)C)CC2
- GI50 (DU-145 prostate): 1.71 µM
- TGI (DU-145 prostate): 3.87 µM
- GI50 (SK-MEL-2 melanoma): 6.01 µM
- TGI (SK-MEL-2 melanoma): 12.3 µM
- GI50 (SK-OV-3 ovarian): 20.5 µM
- TGI (SK-OV-3 ovarian): 25 µM
- GI50 (SR leukemia): 0.517 µM
- TGI (SR leukemia): 1.28 µM
- GI50 (SN12C renal): 3.05 µM
- TGI (SN12C renal): 7.47 µM
- GI50 (OVCAR-8 ovarian): 1.67 µM
- TGI (OVCAR-8 ovarian): 3.84 µM
- GI50 (PC-3 prostate): 2.24 µM
- TGI (PC-3 prostate): 6.43 µM
- GI50 (MDA-MB-435): 2.64 µM
- TGI (MDA-MB-435): 7.91 µM

Compound: O=c1cc(O)cc2n1CCC2
- TGI (DMS 273 small cell lung): > 100 µM
- TGI (SK-MEL-2 melanoma): > 100 µM
- TGI (SK-OV-3 ovarian): > 100 µM
- TGI (DLD-1 colon): > 100 µM
- TGI (LXFL 529 NSCLC): > 100 µM
- TGI (SN12C renal): > 100 µM
- TGI (OVCAR-8 ovarian): > 100 µM
- TGI (SNB-78 CNS): > 100 µM

Compound: O=[N+]([O-])c1cccc(C2=NN(c3ccccc3)C3c4cc(Br)ccc4OCC23)c1 (stereo not given)
- TGI (DMS 273 small cell lung): > 100 µM
- TGI (SK-MEL-2 melanoma): > 100 µM
- TGI (SK-OV-3 ovarian): > 100 µM
- TGI (DLD-1 colon): > 100 µM
- TGI (LXFL 529 NSCLC): > 100 µM
- TGI (OVCAR-8 ovarian): > 100 µM
- TGI (SNB-78 CNS): > 100 µM

Compound: N#C/C(=C\c1cc(OCc2ccccc2)c(OCc2ccccc2)cn1)C(N)=O
- TGI (SK-MEL-2 melanoma): > 100 µM
- TGI (SK-OV-3 ovarian): > 100 µM
- TGI (DLD-1 colon): > 100 µM
- TGI (LXFL 529 NSCLC): > 100 µM
- TGI (SN12C renal): > 100 µM
- TGI (OVCAR-8 ovarian): > 100 µM
- TGI (SNB-78 CNS): > 100 µM

Compound: CCOC(=O)c1nc(C)oc1C(F)(F)F
- TGI (SK-MEL-2 melanoma): > 100 µM
- TGI (SK-OV-3 ovarian): > 100 µM
- TGI (DLD-1 colon): > 100 µM
- TGI (LXFL 529 NSCLC): > 100 µM
- TGI (SR leukemia): > 100 µM
- TGI (SN12C renal): > 100 µM
- TGI (OVCAR-8 ovarian): > 100 µM
- TGI (SNB-78 CNS): > 100 µM

Compound: O=C(/C=C/C12c3ccccc3C(c3ccccc31)C1C(=O)NC(=O)C12)c1ccccn1 (stereo not given)
- GI50 (DU-145 prostate): 1.02 µM
- TGI (DU-145 prostate): 2.21 µM
- GI50 (SK-MEL-2 melanoma): 1.76 µM
- TGI (SK-MEL-2 melanoma): 3.95 µM
- GI50 (SK-OV-3 ovarian): 2.4 µM
- TGI (SK-OV-3 ovarian): 8.31 µM
- GI50 (SR leukemia): 0.782 µM
- TGI (SR leukemia): 7.31 µM
- GI50 (SN12C renal): 1.48 µM
- TGI (SN12C renal): 3.44 µM
- GI50 (OVCAR-8 ovarian): 1.8 µM
- TGI (OVCAR-8 ovarian): 5.54 µM
- GI50 (PC-3 prostate): 1.67 µM
- TGI (PC-3 prostate): 4.46 µM
- GI50 (MDA-MB-435): 1.77 µM
- TGI (MDA-MB-435): 5.15 µM

Compound: CCN1C(=S)N(CC)C2C1NC(=S)N2/N=C/C=C/c1ccccc1OC (stereo not given)
- GI50 (DU-145 prostate): 0.354 µM
- TGI (DU-145 prostate): 25.3 µM
- GI50 (SK-MEL-2 melanoma): 0.615 µM
- TGI (SK-MEL-2 melanoma): 56.7 µM
- GI50 (SK-OV-3 ovarian): 0.505 µM
- TGI (SK-OV-3 ovarian): > 100 µM
- GI50 (SR leukemia): 0.0833 µM
- GI50 (SN12C renal): 0.67 µM
- TGI (SN12C renal): 24.8 µM
- GI50 (OVCAR-8 ovarian): 0.538 µM
- TGI (OVCAR-8 ovarian): > 41.2 µM
- GI50 (PC-3 prostate): 0.29 µM
- TGI (PC-3 prostate): > 100 µM
- GI50 (MDA-MB-435): 0.0368 µM
- TGI (MDA-MB-435): 0.177 µM
